# Assay results published in patent US7884136B2, “Modified-release formulations of a bupropion salt” (Biovail Laboratories International S.R.L., priority 2005, dated 2011).
# Experiment: Shelf life stability program of bupropion HBr, 25° C./60% RH, 3 and 6 months, HPLC
# Format: physicochemical
# Settings: 25° C., R.H. 60%; for Chromatographic purity B) (HPLC) 4) 2-N-(tert-Butyl)-aminopropiophenone / Chromatographic purity B) (HPLC) 5) single unknown impurity (each): LOQ 0.02%, LOD 0.002%; for Chromatographic purity A) (HPLC) 1) 3′-Chloropropiophenone / Chromatographic purity A) (HPLC) 3) 3′-Chlorobenzoic acid / Chromatographic purity A) (HPLC) 2) 3′-Chloro-2-bromopropiophenone: LOQ 0.05%; for Chromatographic purity A) (HPLC) 1) 3′-Chloropropiophenone / Chromatographic purity A) (HPLC) 3) 3′-Chlorobenzoic acid: LOD 0.01%; for Chromatographic purity A) (HPLC) 2) 3′-Chloro-2-bromopropiophenone: LOD 0.04%
# Experimental: The stability of bupropion HBr was studied over a longer term under conditions meant to approximate standard storage or shelf conditions. Samples were prepared in closed containers and subjected to long-term storage at 25° C.+2° C. and 60%+5% RH in a stability chamber. The samples were analyzed by HPLC prior to being placed in the stability chamber (time 0) and after 3 months and 6 months. The amounts of the main degradation products present at time 0 were compared with the amounts present at 3 months and 6 months. As shown in Table 77-79 three different batches of bupropion HBr were tested. As in Example 10 each sample was tested under two HPLC assay conditions to identify 6 impurities or groups of impurities as described in Example 10.
structure (smiles),measurement,setting,value
Br.CC(NC(C)(C)C)C(=O)c1cccc(Cl)c1 (stereo not drawn) [Bupropion•HBr],Assay (HPLC),"Batch D00894, 12 months",99.6 % on d.b.
same,Chromatographic purity (HPLC: A + B) Total impurities,"Batch D00894, 12 months",0.2%
same,Chromatographic purity B) (HPLC) 6) total unknown impurities,"Batch D00894, 12 months",6) 0.07%
same,Description (white or almost white crystalline powder),"Batch D00894, 12 months",conform
same,"Identification IR, HPLC","Batch D00894, 12 months",positive
same,Water content (K.F.),"Batch D00894, 12 months",0.05%
same,Chromatographic purity B) (HPLC) 4) 2-N-(tert-Butyl)-aminopropiophenone,"Batch D00894, 12 months",4) 0.05%
same,Chromatographic purity B) (HPLC) 5) single unknown impurity (each),"Batch D00894, 12 months",5) 0.05%
same,Chromatographic purity A) (HPLC) 1) 3′-Chloropropiophenone,"Batch D00894, 12 months",1) n.d.
same,Chromatographic purity A) (HPLC) 3) 3′-Chlorobenzoic acid,"Batch D00894, 12 months",3) 0.05%
same,Chromatographic purity A) (HPLC) 2) 3′-Chloro-2-bromopropiophenone,"Batch D00894, 12 months",2) n.d.
same,Assay (HPLC),"Batch D00894, time 0",99.6 % on d.b.
same,Chromatographic purity (HPLC: A + B) Total impurities,"Batch D00894, time 0",0.1%
same,Chromatographic purity B) (HPLC) 6) total unknown impurities,"Batch D00894, time 0",6) 0.04%
same,Description (white or almost white crystalline powder),"Batch D00894, time 0",conform
same,"Identification IR, HPLC","Batch D00894, time 0",positive
same,Water content (K.F.),"Batch D00894, time 0",0.05%
same,Chromatographic purity B) (HPLC) 4) 2-N-(tert-Butyl)-aminopropiophenone,"Batch D00894, time 0",4) 0.04%
same,Chromatographic purity B) (HPLC) 5) single unknown impurity (each),"Batch D00894, time 0",5) 0.04%
same,Chromatographic purity A) (HPLC) 1) 3′-Chloropropiophenone,"Batch D00894, time 0",1) n.d.
same,Chromatographic purity A) (HPLC) 3) 3′-Chlorobenzoic acid,"Batch D00894, time 0",3) n.q.
same,Chromatographic purity A) (HPLC) 2) 3′-Chloro-2-bromopropiophenone,"Batch D00894, time 0",2) n.d.
same,Assay (HPLC),"Batch D00895, 3 months",99.5 % on d.b.
same,Chromatographic purity (HPLC: A + B) Total impurities,"Batch D00895, 3 months",0.1%
same,Chromatographic purity B) (HPLC) 6) total unknown impurities,"Batch D00895, 3 months",6) 0.05%
same,Description (white or almost white crystalline powder),"Batch D00895, 3 months",conform
same,"Identification IR, HPLC","Batch D00895, 3 months",positive
same,Water content (K.F.),"Batch D00895, 3 months",0.04%
same,Chromatographic purity B) (HPLC) 4) 2-N-(tert-Butyl)-aminopropiophenone,"Batch D00895, 3 months",4) 0.03%
same,Chromatographic purity B) (HPLC) 5) single unknown impurity (each),"Batch D00895, 3 months",5) 0.04%
same,Chromatographic purity A) (HPLC) 1) 3′-Chloropropiophenone,"Batch D00895, 3 months",1) n.q.
same,Chromatographic purity A) (HPLC) 3) 3′-Chlorobenzoic acid,"Batch D00895, 3 months",3) n.q.
same,Chromatographic purity A) (HPLC) 2) 3′-Chloro-2-bromopropiophenone,"Batch D00895, 3 months",2) n.d.
same,Assay (HPLC),"Batch D00895, 6 months",100.1 % on d.b.
same,Chromatographic purity (HPLC: A + B) Total impurities,"Batch D00895, 6 months",0.1%
same,Chromatographic purity B) (HPLC) 6) total unknown impurities,"Batch D00895, 6 months",6) 0.02%
same,Description (white or almost white crystalline powder),"Batch D00895, 6 months",conform
same,"Identification IR, HPLC","Batch D00895, 6 months",positive
same,Water content (K.F.),"Batch D00895, 6 months",0.05%
same,Chromatographic purity B) (HPLC) 4) 2-N-(tert-Butyl)-aminopropiophenone,"Batch D00895, 6 months",4) 0.05%
same,Chromatographic purity B) (HPLC) 5) single unknown impurity (each),"Batch D00895, 6 months",5) n.q.
same,Chromatographic purity A) (HPLC) 1) 3′-Chloropropiophenone,"Batch D00895, 6 months",1) 0.05%
same,Chromatographic purity A) (HPLC) 3) 3′-Chlorobenzoic acid,"Batch D00895, 6 months",3) n.q.
same,Chromatographic purity A) (HPLC) 2) 3′-Chloro-2-bromopropiophenone,"Batch D00895, 6 months",2) n.d.
same,Assay (HPLC),"Batch D00895, 9 months",99.4 % on d.b.
same,Chromatographic purity (HPLC: A + B) Total impurities,"Batch D00895, 9 months",n.q.
same,Chromatographic purity B) (HPLC) 6) total unknown impurities,"Batch D00895, 9 months",6) n.q.
same,Description (white or almost white crystalline powder),"Batch D00895, 9 months",conform
same,"Identification IR, HPLC","Batch D00895, 9 months",positive
same,Water content (K.F.),"Batch D00895, 9 months",0.05%
same,Chromatographic purity B) (HPLC) 4) 2-N-(tert-Butyl)-aminopropiophenone,"Batch D00895, 9 months",4) n.d.
same,Chromatographic purity B) (HPLC) 5) single unknown impurity (each),"Batch D00895, 9 months",5) n.q.
same,Chromatographic purity A) (HPLC) 1) 3′-Chloropropiophenone,"Batch D00895, 9 months",1) n.q.
same,Chromatographic purity A) (HPLC) 3) 3′-Chlorobenzoic acid,"Batch D00895, 9 months",3) n.q.
same,Chromatographic purity A) (HPLC) 2) 3′-Chloro-2-bromopropiophenone,"Batch D00895, 9 months",2) n.d.
same,Assay (HPLC),"Batch D00895, 12 months",99.4 % on d.b.
same,Chromatographic purity (HPLC: A + B) Total impurities,"Batch D00895, 12 months",0.2%
same,Chromatographic purity B) (HPLC) 6) total unknown impurities,"Batch D00895, 12 months",6) 0.07%
same,Description (white or almost white crystalline powder),"Batch D00895, 12 months",conform
same,"Identification IR, HPLC","Batch D00895, 12 months",positive
same,Water content (K.F.),"Batch D00895, 12 months",0.04%
same,Chromatographic purity B) (HPLC) 4) 2-N-(tert-Butyl)-aminopropiophenone,"Batch D00895, 12 months",4) 0.05%
same,Chromatographic purity B) (HPLC) 5) single unknown impurity (each),"Batch D00895, 12 months",5) 0.07%
same,Chromatographic purity A) (HPLC) 1) 3′-Chloropropiophenone,"Batch D00895, 12 months",1) n.d.
same,Chromatographic purity A) (HPLC) 3) 3′-Chlorobenzoic acid,"Batch D00895, 12 months",3) 0.05%
same,Chromatographic purity A) (HPLC) 2) 3′-Chloro-2-bromopropiophenone,"Batch D00895, 12 months",2) n.d.
same,Assay (HPLC),"Batch D00895, time 0",99.2 % on d.b.
same,Chromatographic purity (HPLC: A + B) Total impurities,"Batch D00895, time 0",0.1%
same,Chromatographic purity B) (HPLC) 6) total unknown impurities,"Batch D00895, time 0",6) 0.04%
same,Description (white or almost white crystalline powder),"Batch D00895, time 0",conform
same,"Identification IR, HPLC","Batch D00895, time 0",positive
same,Water content (K.F.),"Batch D00895, time 0",0.04%
same,Chromatographic purity B) (HPLC) 4) 2-N-(tert-Butyl)-aminopropiophenone,"Batch D00895, time 0",4) 0.04%
same,Chromatographic purity B) (HPLC) 5) single unknown impurity (each),"Batch D00895, time 0",5) 0.04%
same,Chromatographic purity A) (HPLC) 1) 3′-Chloropropiophenone,"Batch D00895, time 0",1) n.d.
same,Chromatographic purity A) (HPLC) 3) 3′-Chlorobenzoic acid,"Batch D00895, time 0",3) n.q.
same,Chromatographic purity A) (HPLC) 2) 3′-Chloro-2-bromopropiophenone,"Batch D00895, time 0",2) n.d.
same,Assay (HPLC),"Batch D00896, 3 months",99.4 % on d.b.
same,Chromatographic purity (HPLC: A + B) Total impurities,"Batch D00896, 3 months",0.1%
same,Chromatographic purity B) (HPLC) 6) total unknown impurities,"Batch D00896, 3 months",6) 0.05%
same,Description (white or almost white crystalline powder),"Batch D00896, 3 months",conform
same,"Identification IR, HPLC","Batch D00896, 3 months",positive
same,Water content (K.F.),"Batch D00896, 3 months",0.04%
same,Chromatographic purity B) (HPLC) 4) 2-N-(tert-Butyl)-aminopropiophenone,"Batch D00896, 3 months",4) 0.03%
same,Chromatographic purity B) (HPLC) 5) single unknown impurity (each),"Batch D00896, 3 months",5) 0.04%
same,Chromatographic purity A) (HPLC) 1) 3′-Chloropropiophenone,"Batch D00896, 3 months",1) n.q.
same,Chromatographic purity A) (HPLC) 3) 3′-Chlorobenzoic acid,"Batch D00896, 3 months",3) n.q.
same,Chromatographic purity A) (HPLC) 2) 3′-Chloro-2-bromopropiophenone,"Batch D00896, 3 months",2) n.d.
same,Assay (HPLC),"Batch D00896, 6 months",100.5 % on d.b.
same,Chromatographic purity (HPLC: A + B) Total impurities,"Batch D00896, 6 months",0.1%
same,Chromatographic purity B) (HPLC) 6) total unknown impurities,"Batch D00896, 6 months",6) n.q.
same,Description (white or almost white crystalline powder),"Batch D00896, 6 months",conform
same,"Identification IR, HPLC","Batch D00896, 6 months",positive
same,Water content (K.F.),"Batch D00896, 6 months",0.04%
same,Chromatographic purity B) (HPLC) 4) 2-N-(tert-Butyl)-aminopropiophenone,"Batch D00896, 6 months",4) 0.04%
same,Chromatographic purity B) (HPLC) 5) single unknown impurity (each),"Batch D00896, 6 months",5) n.q.
same,Chromatographic purity A) (HPLC) 1) 3′-Chloropropiophenone,"Batch D00896, 6 months",1) 0.05%
same,Chromatographic purity A) (HPLC) 3) 3′-Chlorobenzoic acid,"Batch D00896, 6 months",3) n.q.
same,Chromatographic purity A) (HPLC) 2) 3′-Chloro-2-bromopropiophenone,"Batch D00896, 6 months",2) n.d.
same,Assay (HPLC),"Batch D00896, 9 months",99.4 % on d.b.
same,Chromatographic purity (HPLC: A + B) Total impurities,"Batch D00896, 9 months",n.q.
same,Chromatographic purity B) (HPLC) 6) total unknown impurities,"Batch D00896, 9 months",6) n.q.
same,Description (white or almost white crystalline powder),"Batch D00896, 9 months",conform
same,"Identification IR, HPLC","Batch D00896, 9 months",positive
same,Water content (K.F.),"Batch D00896, 9 months",0.04%
same,Chromatographic purity B) (HPLC) 4) 2-N-(tert-Butyl)-aminopropiophenone,"Batch D00896, 9 months",4) n.d.
same,Chromatographic purity B) (HPLC) 5) single unknown impurity (each),"Batch D00896, 9 months",5) n.q.
same,Chromatographic purity A) (HPLC) 1) 3′-Chloropropiophenone,"Batch D00896, 9 months",1) n.q.
same,Chromatographic purity A) (HPLC) 3) 3′-Chlorobenzoic acid,"Batch D00896, 9 months",3) n.q.
same,Chromatographic purity A) (HPLC) 2) 3′-Chloro-2-bromopropiophenone,"Batch D00896, 9 months",2) n.d.
same,Assay (HPLC),"Batch D00896, 12 months",100.3 % on d.b.
same,Chromatographic purity (HPLC: A + B) Total impurities,"Batch D00896, 12 months",0.1%
same,Chromatographic purity B) (HPLC) 6) total unknown impurities,"Batch D00896, 12 months",6) 0.07%
same,Description (white or almost white crystalline powder),"Batch D00896, 12 months",conform
same,"Identification IR, HPLC","Batch D00896, 12 months",positive
same,Water content (K.F.),"Batch D00896, 12 months",0.03%
same,Chromatographic purity B) (HPLC) 4) 2-N-(tert-Butyl)-aminopropiophenone,"Batch D00896, 12 months",4) 0.05%
same,Chromatographic purity B) (HPLC) 5) single unknown impurity (each),"Batch D00896, 12 months",5) 0.07%
same,Chromatographic purity A) (HPLC) 1) 3′-Chloropropiophenone,"Batch D00896, 12 months",1) n.d.
same,Chromatographic purity A) (HPLC) 3) 3′-Chlorobenzoic acid,"Batch D00896, 12 months",3) n.q.
same,Chromatographic purity A) (HPLC) 2) 3′-Chloro-2-bromopropiophenone,"Batch D00896, 12 months",2) n.d.
same,Assay (HPLC),"Batch D00896, time 0",99.3 % on d.b.
same,Chromatographic purity (HPLC: A + B) Total impurities,"Batch D00896, time 0",0.1%
same,Chromatographic purity B) (HPLC) 6) total unknown impurities,"Batch D00896, time 0",6) 0.05%
same,Description (white or almost white crystalline powder),"Batch D00896, time 0",conform
same,"Identification IR, HPLC","Batch D00896, time 0",positive
same,Water content (K.F.),"Batch D00896, time 0",0.06%
same,Chromatographic purity B) (HPLC) 4) 2-N-(tert-Butyl)-aminopropiophenone,"Batch D00896, time 0",4) 0.04%
same,Chromatographic purity B) (HPLC) 5) single unknown impurity (each),"Batch D00896, time 0",5) 0.05%
same,Chromatographic purity A) (HPLC) 1) 3′-Chloropropiophenone,"Batch D00896, time 0",1) n.d.
same,Chromatographic purity A) (HPLC) 3) 3′-Chlorobenzoic acid,"Batch D00896, time 0",3) n.q.
same,Chromatographic purity A) (HPLC) 2) 3′-Chloro-2-bromopropiophenone,"Batch D00896, time 0",2) n.d.
